Measured values published in ChEMBL document CHEMBL5325471, “Identification of new modulator of DNA repairing pathways based on natural product (±)-peharmaline A” (Bioorg Med Chem, 2023).
Activity calls are given as the source filed them. No cut-off for these calls is given here.

Columns and labels:
PC-3 = assay: Antiproliferative activity against human PC-3 cells assessed as cell growth inhibition incubated for 44 hrs by MTT assay; assay type: functional, cell-based; conditions: PC-3, 44 h
MCF7 = assay: Antiproliferative activity against human MCF7 cells assessed as cell growth inhibition incubated for 44 hrs by MTT assay; assay type: functional, cell-based; conditions: MCF7, 44 h
A549 = assay: Antiproliferative activity against human A549 cells assessed as cell growth inhibition incubated for 44 hrs by MTT assay; assay type: functional, cell-based; conditions: A549, 44 h
HCT-116 [1] = assay: Antiproliferative activity against human HCT-116 cells assessed as cell growth inhibition incubated for 44 hrs by MTT assay; assay type: functional, cell-based; conditions: HCT-116, 44 h
[2] = Cytotoxicity against human fR2 cells assessed as cell growth inhibition incubated for 44 hrs by MTT assay; assay type: toxicity, cell-based
[3] = Cmax in BALB/c mouse at 20 mg/kg, ip measured upto 24 hrs by LC-MS/MS analysis; assay type: ADME, organism-based; parameters: dose 20 mg/kg, time < 24 hrs, route ip; conditions: in vivo
[4] = Tmax in BALB/c mouse at 20 mg/kg, ip measured upto 24 hrs by LC-MS/MS analysis; assay type: ADME, organism-based; conditions: in vivo
[5] = AUC (0 to infinity) in BALB/c mouse at 20 mg/kg, ip measured upto 24 hrs by LC-MS/MS analysis; assay type: ADME, organism-based; parameters: dose 20 mg/kg, time < 24 hrs, route ip; conditions: in vivo
[6] = Clearance in BALB/c mouse at 20 mg/kg, ip measured upto 24 hrs by LC-MS/MS analysis; assay type: ADME, organism-based; conditions: in vivo
HCT-116 [7] = assay: Induction of DNA damage in human HCT-116 cell assessed as increase in olive tail moment at 0.5 uM incubated for 24 hrs by EtBr-based alkaline Comet assay (Rvb= 0.26%); assay type: functional
HCT-116 [8] = assay: Induction of DNA damage in human HCT-116 cell assessed as comet tail formation at 0.5 uM incubated for 24 hrs by EtBr-based alkaline Comet assay (Rvb= 2.99 %); assay type: functional
HCT-116 [9] = assay: Induction of cell cycle arrest in human HCT-116 cells assessed as accumulation of cells at G1 phase at 0.5 uM incubated for 24 hrs by RNase/PI staining-based FACS flow cytometry analysis (reference value: 51 %); assay type: functional
HCT-116 [10] = assay: Induction of cell cycle arrest in human HCT-116 cells assessed as accumulation of cells at G1 phase at 2 uM incubated for 24 hrs by RNase/PI staining-based FACS flow cytometry analysis (reference value: 51 %); assay type: functional
HCT-116 [11] = assay: Induction of cell cycle arrest in human HCT-116 cells assessed as accumulation of cells at G2 phase at 0.5 uM incubated for 24 hrs by RNase/PI staining-based FACS flow cytometry analysis (reference value: 33 %); assay type: functional
HCT-116 [12] = assay: Induction of cell cycle arrest in human HCT-116 cells assessed as accumulation of cells at S phase at 0.5 uM incubated for 24 hrs by RNase/PI staining-based FACS flow cytometry analysis (reference value: 11 %); assay type: functional
HCT-116 [13] = assay: Induction of cell cycle arrest in human HCT-116 cells assessed as accumulation of cells at S phase at 1 uM incubated for 24 hrs by RNase/PI staining-based FACS flow cytometry analysis (reference value: 11 %); assay type: functional
HCT-116 [14] = assay: Induction of cell cycle arrest in human HCT-116 cells assessed as accumulation of cells at G2 phase at 1 uM incubated for 24 hrs by RNase/PI staining-based FACS flow cytometry analysis (reference value: 33 %); assay type: functional
HCT-116 [15] = assay: Induction of cell cycle arrest in human HCT-116 cells assessed as accumulation of cells at G2 phase at 2 uM incubated for 24 hrs by RNase/PI staining-based FACS flow cytometry analysis (reference value: 33 %); assay type: functional
HCT-116 [16] = assay: Induction of DNA damage in human HCT-116 cells assessed as increase in phosphorylated gamma-H2AX foci formation at 0.5 to 2 uM incubated for 24 hrs by DAPI staining based immunofluorescence analysis; assay type: functional, cell-based; conditions: dose 0.5-2 µM
HCT-116 [17] = assay: Induction of DNA damage in human HCT-116 cells assessed as micronuclei formation at 0.5 to 2 uM incubated for 24 hrs by DAPI staining based immunofluorescence analysis; assay type: functional, cell-based; conditions: dose 0.5-2 µM
HCT-116 [18] = assay: Inhibition of DNA repairing pathway in human HCT-116 cells assessed as downregulation of Rad51 protein expression at 0.25 to 2 uM incubated for 24 hrs by immunoblotting analysis; assay type: functional, cell-based; conditions: dose 0.25-2 µM
HCT-116 [19] = assay: Inhibition of DNA repairing pathway in human HCT-116 cells assessed as downregulation of MRE11 protein expression at 0.25 to 2 uM incubated for 24 hrs by immunoblotting analysis; assay type: functional, cell-based; conditions: dose 0.25-2 µM
HCT-116 [20] = assay: Inhibition of DNA repairing pathway in human HCT-116 cells assessed as downregulation of H2AX protein expression at 0.25 to 2 uM incubated for 24 hrs by immunoblotting analysis; assay type: functional, cell-based; conditions: dose 0.25-2 µM
HCT-116 [21] = assay: Induction of DNA double-strand breaks in human HCT-116 cells assessed as increase in gammaH2AX accumulation at 0.25 to 2 uM incubated for 24 hrs by immunoblotting analysis; assay type: functional, cell-based; conditions: dose 0.25-2 µM
HCT-116 [22] = assay: Inhibition of epithelial-to-mesenchymal transition in human HCT-116 cells assessed as upregulation of E-cadherin protein expression by immunoblot analysis; assay type: functional, cell-based
HCT-116 [23] = assay: Inhibition of epithelial-to-mesenchymal transition in human HCT-116 cells assessed as downregulation of Snail-1 protein expression by immunoblot analysis; assay type: functional, cell-based
HCT-116 [24] = assay: Inhibition of epithelial-to-mesenchymal transition in human HCT-116 cells assessed as reduction in VEGF-induced cell scattering incubated for 48 hrs by inverted microscopic analysis; assay type: functional, cell-based
4T1 = assay: Antitumor activity against mouse 4T1 cells implanted in BALB/c mouse assessed as reduction in tumor volume at 20 mg/kg, ip administered every alternate day for 2 weeks relative to control; assay type: functional; parameters: scale not given: the % may be the effect or the level left
HCT-116 [25] = assay: Induction of DNA damage in human HCT-116 cell assessed as increase in olive tail moment at 1 uM incubated for 24 hrs by EtBr-based alkaline Comet assay (Rvb= 0.26%); assay type: functional
HCT-116 [26] = assay: Induction of DNA damage in human HCT-116 cell assessed as increase in olive tail moment at 2 uM incubated for 24 hrs by EtBr-based alkaline Comet assay (Rvb= 0.26%); assay type: functional
HCT-116 [27] = assay: Induction of DNA damage in human HCT-116 cell assessed as comet tail formation at 1 uM incubated for 24 hrs by EtBr-based alkaline Comet assay (Rvb= 2.99 %); assay type: functional
HCT-116 [28] = assay: Induction of DNA damage in human HCT-116 cell assessed as comet tail formation at 2 uM incubated for 24 hrs by EtBr-based alkaline Comet assay (Rvb= 2.99 %); assay type: functional
[29] = Drug exposure in BALB/c mouse plasma at 20 mg/kg, ip measured upto 24 hrs by LC-MS/MS analysis; assay type: ADME, organism-based; parameters: dose 20 mg/kg, time < 24 hrs, route ip
HCT-116 [30] = assay: Inhibition of DNA repairing pathway in human HCT-116 cells assessed as increase in cleaved PARP level at 0.25 to 2 uM incubated for 24 hrs by immunoblotting analysis; assay type: functional, cell-based; conditions: dose 0.25-2 µM
HCT-116 [31] = assay: Inhibition of DNA repairing pathway in human HCT-116 cells assessed as increase in gamma-H2AX level at 0.25 to 2 uM incubated for 24 hrs by immunoblotting analysis; assay type: functional, cell-based; conditions: dose 0.25-2 µM
[32] = Toxicity in BALB/c mouse implanted with mouse 4T1 cells at 20 mg/kg, ip administered every alternate day for 2 weeks; assay type: organism-based; conditions: in vivo, 336 h

Compound `COC(=O)[C@]1([C@H]2CCn3c2nc2ccccc2c3=O)NCCc2c1[nH]c1ccccc21` (racemic) has an IC50 (PC-3) of 6050 nM, an IC50 (MCF7) of 1410 nM and an IC50 (A549) of 1680 nM. It also gave an IC50 (HCT-116 [1]) of 1020 nM, an IC50 at 44 h [2] of 19700 nM and a Cmax [3] of 4490 ng/mL. The Tmax [4] was 48 min, the AUC(0-inf) [5] was 11200 ng·h/mL and the CL/F [6] was 30 mL/min/kg. The Activity (HCT-116 [7]) was 5.21%, the Activity (HCT-116 [8]) was 31.99% and the Activity (HCT-116 [9]) was 66%. The Activity (HCT-116 [10]) was 74%, the Activity (HCT-116 [11]) was 24% and the Activity (HCT-116 [12]) was 7%. It also gave an Activity (HCT-116 [13]) of 7%, an Activity (HCT-116 [14]) of 17% and an Activity (HCT-116 [15]) of 21%. The Activity (HCT-116 [16]) was “Active”, the Activity (HCT-116 [17]) was “Active” and the inhibition (HCT-116 [18]) was “Active”. For the same compound, the inhibition (HCT-116 [19]) was “Active”, the inhibition (HCT-116 [20]) was “Active” and the Activity (HCT-116 [21]) was “Active”. The inhibition (HCT-116 [22]) was “Active”, the inhibition (HCT-116 [23]) was “Active” and the inhibition (HCT-116 [24]) was “Active”. It also gave an Activity (4T1) of 89.3%, an Activity (HCT-116 [25]) of 9.53% and an Activity (HCT-116 [26]) of 14.05%. The Activity (HCT-116 [27]) was 48%, the Activity (HCT-116 [28]) was 51.03% and the AUC at 24 h [29] was > 25 µM·h. The inhibition (HCT-116 [30]) was “Active”, the inhibition (HCT-116 [31]) was “Active” and the Activity [32] was “Non-Toxic”.
